Reference: PubChem BioAssay (NCI)
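How tested: cells in 96-well plates exposed to compound for 48 hours at five concentrations. The concentration for 50% growth inhibition is given as GI50. TGI is the concentration that stops growth completely.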

Experiments:
Test in all cases: NCI anticancer screen, dose series, 48 h
[1] = system: SF-268 CNS
[2] = system: SNB-19 CNS
[3] = system: RPMI-8226 leukemia
[4] = system: UACC-257 melanoma
[5] = system: MALME-3M melanoma
[6] = system: SF-295 CNS
[7] = system: HCC-2998 colon
[8] = system: 786-0 renal
[9] = system: UO-31 renal
[10] = system: CAKI-1 renal
[11] = system: HOP-92 NSCLC
[12] = system: K-562 leukemia
[13] = system: NCI-H23 lung
[14] = system: HCT-15 colon
[15] = system: OVCAR-5 ovarian
[16] = system: RXF 393 renal
[17] = system: EKVX NSCLC
[18] = system: SK-MEL-5 melanoma
[19] = system: UACC-62 melanoma
[20] = system: HS 578T breast
[21] = system: SF-539 CNS
[22] = system: MDA-MB-231 breast
[23] = system: MDA-MB-435
[24] = system: SK-MEL-2 melanoma
[25] = system: DU-145 prostate
[26] = system: A549 NSCLC
[27] = system: U251 CNS
[28] = system: HCT-116 colon
[29] = system: T-47D breast
[30] = system: HL-60(TB) leukemia
[31] = system: OVCAR-3 ovarian
[32] = system: SNB-75 CNS
[33] = system: SK-MEL-28 melanoma
[34] = system: NCI-H522 lung
[35] = system: NCI-H226 lung
[36] = system: OVCAR-4 ovarian
[37] = system: IGROV1 ovarian
[38] = system: HT29 colon
[39] = system: HOP-62 NSCLC
[40] = system: M14 melanoma
[41] = system: CCRF-CEM leukemia
[42] = system: PC-3 prostate
[43] = system: A498 renal
[44] = system: NCI/ADR-RES ovarian
[45] = system: MCF7 breast
[46] = system: OVCAR-8 ovarian
[47] = system: LOX IMVI melanoma
[48] = system: NCI-H460 lung
[49] = system: COLO 205 colon
[50] = system: ACHN renal
[51] = system: BT-549 breast
[52] = system: SW-620 colon
[53] = system: SK-OV-3 ovarian
[54] = system: MOLT-4 leukemia
[55] = system: SN12C renal
[56] = system: KM12 colon
[57] = system: TK-10 renal

## C[C@@H]1CN(c2ccc3ncc(C#Cc4cncc(C(=O)Nc5ccc(CN6CCN(C)CC6)c(C(F)(F)F)c5)c4)n3n2)C[C@H](C)O1
[1]
  GI50: 111 nM
  TGI: 522 nM
[2]
  GI50: 325 nM
  TGI: 1150 nM
[3]
  GI50: 258 nM
  TGI: 5640 nM
[4]
  GI50: 228 nM
  TGI: 1410 nM
[5]
  GI50: 77.8 nM
  TGI: 251 nM
[6]
  GI50: 214 nM
  TGI: 1530 nM
[7]
  GI50: 153 nM
  TGI: 956 nM
[8]
  GI50: 48.3 nM
  TGI: 202 nM
[9]
  GI50: 79.8 nM
  TGI: 361 nM
[10]
  GI50: 33.9 nM
  TGI: 157 nM
[11]
  GI50: 28.8 nM
  TGI: 118 nM
[12]
  TGI: 359 nM
[13]
  GI50: 102 nM
  TGI: 322 nM
[14]
  GI50: 45.4 nM
  TGI: 471 nM
[15]
  GI50: 157 nM
  TGI: 975 nM
[16]
  GI50: 30.1 nM
  TGI: 141 nM
[17]
  GI50: 39.9 nM
  TGI: 300 nM
[18]
  GI50: 270 nM
  TGI: 1160 nM
[19]
  GI50: 138 nM
  TGI: 1010 nM
[20]
  GI50: 32.8 nM
  TGI: 348 nM
[21]
  GI50: 33.2 nM
  TGI: 135 nM
[22]
  GI50: 32 nM
  TGI: 223 nM
[23]
  GI50: 86.1 nM
  TGI: 1110 nM
[24]
  GI50: 130 nM
  TGI: 294 nM
[25]
  GI50: 50.4 nM
  TGI: 292 nM
[26]
  GI50: 63.6 nM
  TGI: 410 nM
[27]
  GI50: 119 nM
  TGI: 1300 nM
[28]
  GI50: 34.5 nM
  TGI: 274 nM
[29]
  GI50: 363 nM
  TGI: 5360 nM
[30]
  GI50: 50.7 nM
  TGI: 312 nM
[31]
  GI50: 98.2 nM
  TGI: 1150 nM
[32]
  GI50: 102 nM
  TGI: 235 nM
[33]
  GI50: 295 nM
  TGI: 1340 nM
[34]
  GI50: 33.9 nM
  TGI: 181 nM
[35]
  GI50: 33.9 nM
  TGI: 334 nM
[36]
  GI50: 123 nM
  TGI: 1590 nM
[37]
  GI50: 34.4 nM
  TGI: 201 nM
[38]
  GI50: 67.4 nM
  TGI: 1100 nM
[39]
  GI50: 121 nM
  TGI: 844 nM
[40]
  GI50: 36.5 nM
  TGI: 322 nM
[41]
  GI50: 200 nM
  TGI: 10300 nM
[42]
  GI50: 128 nM
  TGI: 1810 nM
[43]
  GI50: 118 nM
  TGI: 253 nM
[44]
  GI50: 445 nM
  TGI: 1910 nM
[45]
  GI50: 51.3 nM
  TGI: 651 nM
[46]
  GI50: 176 nM
  TGI: 991 nM
[47]
  GI50: 36.8 nM
  TGI: 144 nM
[48]
  GI50: 74.9 nM
  TGI: 732 nM
[49]
  GI50: 135 nM
  TGI: 781 nM
[50]
  GI50: 37.5 nM
  TGI: 211 nM
[51]
  GI50: 135 nM
  TGI: 411 nM
[52]
  GI50: 57.7 nM
  TGI: 2450 nM
[53]
  GI50: 216 nM
  TGI: 736 nM
[54]
  GI50: 77.7 nM
  TGI: 529 nM
[55]
  GI50: 26.9 nM
  TGI: 275 nM
[56]
  TGI: 563 nM
[57]
  GI50: 68.3 nM
  TGI: 400 nM
